# Laboratory results from ChEMBL document CHEMBL1156573, “Design and synthesis of a novel series of N-alkyl isatin acylhydrazone derivatives that act as selective cannabinoid receptor 2 agonists for the treatment of neuropathic pain” (J Med Chem, 2008).
# Calls of active or inactive are those of the source. The calls are words filed in the database; no cut-off is given here.
# What was measured:
# [1] = molecular target: Cannabinoid receptor 1 (Homo sapiens) (UniProt P21554); test: Agonist activity at human CB1 receptor expressed in CHO cells at 3 uM by [35S]GTPgammaS assay relative to CP-55940; format: functional, cell-based
# Cannabinoid receptor 2 [2] = molecular target: T1, Cannabinoid receptor 2 (Homo sapiens, UniProt P34972); test: Displacement of [3H](R)-3-methyl-2-(3-(morpholinomethyl)-3,4-dihydro-2H-benzo[b][1,4]oxazin-5-yl)-1-(naphthalen-1-yl)but-2-en-1-one from human CB2 receptor expressed in CHO cells at 1 uM by liquid scintillation counting; format: cell-based
# [3] = molecular target: Cannabinoid receptor 1 (Homo sapiens) (UniProt P21554); test: Displacement of [3H]CP-55940 from human CB1 receptor expressed in CHO cells at 1 uM by liquid scintillation counting; format: cell-based
# [4] = molecular target: Cannabinoid receptor 1 (Homo sapiens) (UniProt P21554); test: Agonist activity at human CB1 receptor expressed in CHO cells at 10 uM by [35S]GTPgammaS assay; format: functional, cell-based
# Cannabinoid receptor 2 [5] = molecular target: T1, Cannabinoid receptor 2; test: Agonist activity at human CB2 receptor expressed in CHO cells at 3 uM by [35S]GTPgammaS assay relative to CP-55940; format: functional, cell-based
# Cannabinoid receptor 2 [6] = molecular target: T1, Cannabinoid receptor 2; test: Agonist activity at human CB2 receptor expressed in CHO cells by [35S]GTPgammaS assay relative to CP-55940; format: functional, cell-based
# [7] = molecular target: Cannabinoid receptor 1 (Homo sapiens) (UniProt P21554); test: Agonist activity at human CB1 receptor expressed in CHO cells by [35S]GTPgammaS assay relative to CP-55940; format: functional, cell-based
# Rattus norvegicus [8] = test: Antiallodynic activity in AM-630-pretreated ip dosed spinal nerve ligated Sprague-Dawley rat model assessed as inhibition of tactile allodynia; format: functional, organism-based
# [9] = molecular target: Cannabinoid receptor 1 (Homo sapiens) (UniProt P21554); test: Displacement of [3H]CP-55940 from human CB1 receptor expressed in CHO cells at 10 uM by liquid scintillation counting; format: cell-based
# Rattus norvegicus [10] = test: Antiallodynic activity in spinal nerve ligated Sprague-Dawley rat model assessed as inhibition of tactile allodynia at 15 mg/kg, ip; format: functional, organism-based; parameters: dose 15 mg/kg
# Cannabinoid receptor 2 [11] = molecular target: T1, Cannabinoid receptor 2; test: Displacement of [3H](R)-3-methyl-2-(3-(morpholinomethyl)-3,4-dihydro-2H-benzo[b][1,4]oxazin-5-yl)-1-(naphthalen-1-yl)but-2-en-1-one from human CB2 receptor expressed in CHO cells at 10 uM by liquid scintillation counting; format: cell-based
# Rattus norvegicus [12] = test: Antiallodynic activity in spinal nerve ligated Sprague-Dawley rat model assessed as inhibition of tactile allodynia at 10 mg/kg, ip; format: functional, organism-based; parameters: dose 10 mg/kg
# Cannabinoid receptor 2 [13] = molecular target: T1, Cannabinoid receptor 2; test: Displacement of [3H]CP-55940 from human CB2 receptor expressed in CHOK1 cells by liquid scintillation counting; format: cell-based, CHO-K1
# Rattus norvegicus [14] = test: Antiallodynic activity in ip dosed spinal nerve ligated Sprague-Dawley rat model assessed as inhibition of tactile allodynia; format: functional
# Rattus norvegicus [15] = test: Toxicity in Sprague-Dawley rat assessed as exploratory behavior at 15 mg/kg, ip by open-field chamber test; format: organism-based; parameters: dose 15 mg/kg, route intraperitoneal; settings: in vivo
# Cannabinoid receptor 2 [16] = molecular target: T1, Cannabinoid receptor 2; test: Agonist activity at human CB2 receptor expressed in CHO cells by [35S]GTPgammaS assay; format: functional, cell-based
# Chain of Cannabinoid receptor 1 (Homo sapiens) (P21554 whole entry): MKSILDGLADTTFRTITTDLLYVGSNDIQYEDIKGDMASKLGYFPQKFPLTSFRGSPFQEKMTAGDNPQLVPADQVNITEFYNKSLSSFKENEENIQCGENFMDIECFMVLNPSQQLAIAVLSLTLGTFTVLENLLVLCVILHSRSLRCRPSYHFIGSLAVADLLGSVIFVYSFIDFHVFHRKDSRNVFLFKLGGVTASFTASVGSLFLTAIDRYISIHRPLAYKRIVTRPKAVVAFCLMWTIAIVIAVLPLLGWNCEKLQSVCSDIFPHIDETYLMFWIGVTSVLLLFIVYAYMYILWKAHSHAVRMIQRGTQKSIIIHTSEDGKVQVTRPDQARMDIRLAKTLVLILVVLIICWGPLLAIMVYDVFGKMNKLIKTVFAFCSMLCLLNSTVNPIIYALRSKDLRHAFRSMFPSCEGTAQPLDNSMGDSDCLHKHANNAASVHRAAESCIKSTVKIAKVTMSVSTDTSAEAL
# T1 sequence (P34972 whole entry): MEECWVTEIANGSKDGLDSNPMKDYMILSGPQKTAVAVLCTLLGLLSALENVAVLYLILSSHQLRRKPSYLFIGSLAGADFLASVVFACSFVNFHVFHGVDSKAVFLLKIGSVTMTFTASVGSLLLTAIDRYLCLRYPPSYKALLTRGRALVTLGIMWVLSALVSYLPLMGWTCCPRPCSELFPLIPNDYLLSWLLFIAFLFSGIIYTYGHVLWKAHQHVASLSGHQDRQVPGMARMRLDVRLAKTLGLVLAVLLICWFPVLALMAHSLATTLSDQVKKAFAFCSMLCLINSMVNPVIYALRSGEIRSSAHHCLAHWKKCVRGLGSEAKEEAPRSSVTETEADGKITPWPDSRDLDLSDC
SMILES,Activity (Cannabinoid receptor 2 [2]) [%],Activity [3] [%],Emax (Cannabinoid receptor 2 [6]) [%],other results
CCCCCCN1C(=O)/C(=N/NC(=O)OC(C)(C)C)c2ccccc21,27,75,,Activity [1]: inactive; Activity [4]: inactive; Emax (Cannabinoid receptor 2 [5]): 23.4%
CCCN1C(=O)/C(=N\NC(=O)c2ccccc2)c2ccccc21,32,43,61.4,Activity [4]: inactive; Activity [7]: inactive
CN1CCCCC1Cn1cc(C(=O)c2cc([N+](=O)[O-])ccc2I)c2ccccc21 (configuration not stated),,,,Activity (Rattus norvegicus [8]): inactive
CCCCCCN1C(=O)/C(=N\NC(=O)c2ccccc2)c2cccc(I)c21,66,61,,Activity [4]: inactive; Emax (Cannabinoid receptor 2 [5]): 55%; Activity [7]: inactive
CCCCCCN1C(=O)/C(=N\NC(=O)c2ccccc2)c2ccccc21,,,68.8,Activity [9]: 95.5%; Activity (Rattus norvegicus [10]): Active; Activity (Cannabinoid receptor 2 [11]): 92.8%; Activity (Rattus norvegicus [12]): Active; Ki (Cannabinoid receptor 2 [13]): 44.3 nM; ED90 (Rattus norvegicus [14]): 12 mg/kg; Activity (Rattus norvegicus [15]): Non-toxic; Emax [7]: 59.7%
CCCCCCN1C(=O)/C(=N\NC(=O)c2ccc(OC)cc2)c2ccccc21,56,81.7,49.5,Emax [7]: 71%
CCCCCN1C(=O)/C(=N\NC(=O)c2ccccc2)c2cc(I)ccc21,10,25,,
O=C(N/N=C1\C(=O)N(CCN2C(=O)c3ccccc3C2=O)c2ccccc21)c1ccccc1,3,3,,
CCCCCCCCCCCCN1C(=O)/C(=N\NC(=O)c2ccccc2)c2ccccc21,24.3,23.8,,
CCCCCCN1C(=O)/C(=N\NC(=O)c2ccc(Cl)cc2)c2ccccc21,32.7,46.6,,
CCCCCCN1C(=O)/C(=N\NC(=O)c2ccccc2)c2cc(C)ccc21,1,22,,
O=C(N/N=C1\C(=O)N(Cc2ccc(Cl)cc2)c2ccccc21)c1ccccc1,22,94.5,39.8,Emax [7]: 72%
CCCCCCN1C(=O)/C(=N\NC(=O)C23CC4CC(CC(C4)C2)C3)c2ccccc21,90.7,82.6,,Emax [1]: 34.6%; Emax (Cannabinoid receptor 2 [5]): 32.1%
CCCCCCN1C(=O)/C(=N\NC(=O)OC(C)(C)C)c2ccccc21,82.3,85.1,43.4,Ki (Cannabinoid receptor 2 [13]): 13.9 nM; Emax [7]: 92%
O=C(N/N=C1\C(=O)N(CCC2CCCCC2)c2ccccc21)Nc1ccccc1,,,,Activity [9]: < 40%; Activity (Cannabinoid receptor 2 [11]): < 40%
O=C(N/N=C1\C(=O)N(c2ccccc2)c2ccccc21)c1ccccc1,8,18,,
CCCCCCN1C(=O)/C(=N\NC(=O)c2cc3ccccc3s2)c2ccccc21,< 30,< 30,,
CCCCCCN1C(=O)/C(=N\NC(=O)c2ccccc2)c2cc(Cl)ccc21,6,9,,
CCCCCCN1C(=O)/C(=N\NC(=O)C2CCCCC2)c2ccccc21,61,65.8,58,Emax [1]: 40.9%

SMILES,Activity (Cannabinoid receptor 2 [2]) [%],Activity [3] [%],Emax (Cannabinoid receptor 2 [6]) [%],other results
CCCCCN1C(=O)/C(=N\NC(=O)c2ccccc2)c2ccccc21,80,95,68.5,Emax [7]: 95.1%
CCCCCCN1C(=O)/C(=N\NC(=O)c2ccccc2)c2cccc(Cl)c21,29,60,64.8,Activity [4]: inactive; Activity [7]: inactive
O=C1/C(=N\NS(=O)(=O)c2ccccc2)c2ccccc2N1CCC1CCCCC1,,,,Activity [9]: < 40%; Activity (Cannabinoid receptor 2 [11]): < 40%
O=C(N/N=C1\C(=O)N(CC2CCCCC2)c2ccccc21)c1ccccc1,100,99,65.7,Emax [7]: 99%
CCCCCCN1C(=O)/C(=N\NC(=O)c2cccc3ccccc23)c2ccccc21,69.8,83.9,30.5,Emax [1]: 12.9%
CCCCN1C(=O)/C(=N\NC(=O)c2ccccc2)c2ccccc21,70,86,98.9,Emax [1]: 69%; Ki (Cannabinoid receptor 2 [13]): 19.3 nM
CCCCCCN1C(=O)/C(=N\NC(=O)c2ccccc2)c2cc(OC)ccc21,17,26,,
CCCCCCN1C(=O)/C(=N\NC(=O)c2ccccc2)c2cccc(C)c21,68,67,34.2,Activity [4]: inactive; Activity [7]: inactive
CCCCCCN1C(=O)/C(=N/NS(=O)(=O)c2ccccc2)c2ccccc21,,,,Activity [9]: < 40%; Activity (Cannabinoid receptor 2 [11]): < 40%
CCCCCCN1C(=O)/C(=N\NC(=O)c2ccc3ccccc3c2)c2ccccc21,< 30,< 30,,
O=C(N/N=C1\C(=O)N(Cc2ccccc2)c2ccccc21)c1ccccc1,55,87,92.7,Emax [1]: 57%; EC50 (Cannabinoid receptor 2 [16]): 63.7 nM; Ki (Cannabinoid receptor 2 [13]): 18.5 nM; Emax [7]: 57%
O=C(N/N=C1\C(=O)N(CCC2CCCCC2)c2ccccc21)c1ccccc1,,,55.6,Activity [9]: 96%; Activity (Cannabinoid receptor 2 [11]): 79.8%; Ki (Cannabinoid receptor 2 [13]): 58.8 nM; Emax [7]: 56.8%
O=C1/C(=N\NC(=S)Nc2ccccc2)c2ccccc2N1CCC1CCCCC1,,,,Activity [9]: < 40%; Activity (Cannabinoid receptor 2 [11]): < 40%
O=C(Cc1ccccc1)N/N=C1\C(=O)N(CCC2CCCCC2)c2ccccc21,,,21,Activity [9]: 88.8%; Activity (Cannabinoid receptor 2 [11]): 47.2%; Emax [7]: 75%
CCCCCCN1C(=O)/C(=N\NC(=O)CCCCC)c2ccccc21,36.6,45.2,,
CCCCCCN1C(=O)/C(=N\NC(=S)Nc2ccccc2)c2ccccc21,,,,Activity [9]: 49%; Activity (Cannabinoid receptor 2 [11]): 37.7%
CCCCCCN1C(=O)/C(=N\NC(=O)Nc2ccccc2)c2ccccc21,,,,Activity [9]: < 40%; Activity (Cannabinoid receptor 2 [11]): < 40%
CCCCCCN1C(=O)/C(=N\NC(=O)Cc2ccccc2)c2ccccc21,,,45.8,Activity [9]: 98.2%; Activity (Cannabinoid receptor 2 [11]): 91.5%; Emax [7]: 71.9%
CCCCCCN1C(=O)/C(=N\NC(=O)c2ccccc2)c2cc(F)ccc21,46,57,33.8,Activity [4]: inactive; Activity [7]: inactive
